Measurements taken from US5587442A, “Polyglycomers” (priority 1994, dated 1996).

What was measured:
[1] = target: T1, concanavalin A (Con A) (Canavalia ensiformis, UniProt P02866); test: Inhibition of Con A induced erythrocyte agglutination (hemagglutination inhibition assay); assay type: cell-based
T1 construct: purchased Calbiochem
Description: To assess the activity of our polymers, we compared the ability of the polymer to inhibit erythrocyte agglutination by Con A with that of several controls including the monovalent carbohydrate derivative methyl-α-D-glucopyranoside and the divalent-glucose substituted 7-oxanorbornene 3.
The agglutination inhibition assays were performed according to standard protocols. (Osawa, et al., Methods Enzymol. 28:323-327, 1972.) The assay was as follows: Pure lyophilized Con A was dissolved in HEPES buffer with 100 mM CaCl2, pH 8.0, and dialyzed into phosphate buffered saline (PBS, 25 mM sodium phosphate, 0.15M NaCl), pH 7.2, for the assay. Protein solution concentration was estimated from UV absorbance measurements at 280 nm.
Rabbit red blood cells were stored as a 10% suspension in Alsever's solution and washed 3× with PBS before the assay. For the assay, the cells were pelleted and resuspended in PBS with 0.5% bovine serum albumin.
Polymeric inhibitors were purified by precipitation or by gel filtration. The inhibition results obtained for compounds purified by either method were consistent. The minimum concentration of inhibitor required to inhibit four hemagglutinating doses of Con A was determined. After preincubation with the inhibitor, a 2% suspension of erythrocytes was added. The samples were examined for agglutination after 1 hour at room temperature.
Substrates were incubated with four agglutinating doses of Con A, prior to the addition of rabbit erythrocytes. The concentration of glucose moieties in solution required for inhibition was determined for each substrate within a two-fold dilution.

[2] = tested on: Con A; details: cited from earlier work
[3] = tested on: P-selectin; test: ELISA: inhibition of P-selectin-IgG binding to immobilized GlyCAM-1; details: compared among 8, 9, 10
Description: (§1) The affinity of compounds 8, 9 and 10 for each selectin were tested in an ELISA assay that compares their ability to inhibit binding of the selectins to immobilized GlyCAM-1. Because all of the selectins bind to GlyCAM-1 (FIG. 4) this assay provides insight into the relative affinities and specificities of the identified GlyCAM-1 component for each selectin.
(§2) The ELISAs were executed by the following protocol: An antibody to GlyCAM-1 was immobilized in a microtiter well. GlyCAM-1 was added. Selectin-IgG chimeras, which were biotinylated, were added to streptavidin-alkaline phosphatase conjugate. The binding of the selectin-IgGbiotin .cndot.strepavidin-alkaline phosphatase to GlyCAM-1 was monitored by UV. Para-nitrophenolate is produced from alkaline phosphatase catalyzed hydrolysis of paranitrophenolphosphate (Qed). The inhibitory effects of saccharides 8-10 on selectin-IgG binding to immobilized GlyCAM-1 were measured by this method.

[4] = tested on: E-selectin; test: ELISA: inhibition of E-selectin-IgG binding to immobilized GlyCAM-1; details: compared among 8, 9, 10
Description: as §1, §2

[5] = target: L-selectin; test: ELISA: inhibition of L-selectin-IgG binding to immobilized GlyCAM-1
Description: as §1, §2

[6] = Table 2, four agglutinating doses of Con A, rabbit erythrocytes, 1 hour at room temperature, pH 7.2, within a two-fold dilution

O=C(OCCC1OC(CO)C(O)C(O)C1O)C1C2C=CC(O2)C1C(=O)OCCC1OC(CO)C(O)C(O)C1O (centres unmarked) [7-oxanorbornene 3]
Inhibiting dose compared with methyl-α-D-glucopyranoside (in words) [1]: comparable | Inhibiting Dose [carbohydrate residues] [1, 6]: 0.025 M

fucose
binding of fucose to Con A (in words) ([2]; Goldstein 1976): does not bind

CCCO[C@@H]1O[C@H](CO)[C@@H](O[C@@H]2O[C@@H](C)[C@@H](O)[C@@H](O)[C@@H]2O)[C@H](O[C@@H]2O[C@H](CO)[C@H](O)[C@H](OS(=O)(=O)O)[C@H]2O)[C@H]1O [Compound 8]
relative effectiveness at blocking P-selectin binding (in words) [3]: the worst at blocking binding | relative effectiveness in binding to E-selectin (in words) [4]: considerably more effective than the 6-sulfate 9 or the 3,6-disulfate 10 | IC50 for preventing L-selectin binding (in words) [5]: in the mmolar range

CCCO[C@@H]1O[C@H](CO)[C@@H](O[C@@H]2O[C@@H](C)[C@@H](O)[C@@H](O)[C@@H]2O)[C@H](O[C@@H]2O[C@H](COS(=O)(=O)O)[C@H](O)[C@H](O)[C@H]2O)[C@H]1O [Compound 9]
relative effectiveness at blocking P-selectin binding (in words) [3]: slightly better | IC50 for preventing L-selectin binding (in words) [5]: in the mmolar range

CCCO[C@@H]1O[C@H](CO)[C@@H](O[C@@H]2O[C@@H](C)[C@@H](O)[C@@H](O)[C@@H]2O)[C@H](O[C@@H]2O[C@H](COS(=O)(=O)O)[C@H](O)[C@H](OS(=O)(=O)O)[C@H]2O)[C@H]1O [Compound 10]
relative effectiveness at blocking P-selectin binding (in words) [3]: the most active | IC50 for preventing L-selectin binding (in words) [5]: in the mmolar range | relative binding to L-selectin (in words) ([5]; compared among 8, 9, 10): bound no more tightly to L-selectin than the 3- and 6-sulfo analogs 8 and 9

CO[C@H]1O[C@H](CO)[C@@H](O)[C@H](O)[C@@H]1O [methyl-α-D-mannopyranoside, reference compound]
Inhibiting Dose [carbohydrate residues] ([1]; Table 3, hemagglutination inhibition assay, mono- and multivalent carbohydrate derivatives): 0.05 M

mannose
binding to Con A (in words), calorimetric data ([2]; compared with glucose): slightly higher affinity

CO[C@H]1O[C@H](CO)[C@@H](O)[C@H](O)[C@H]1O [methyl-α-D-glucopyranoside, reference compound]
Inhibiting Dose [carbohydrate residues] [1, 6]: 0.05 M
